Holding throughout (assay type): cell-based
Test [1] has as its system melanocytes (melan-a) [멜라닌 세포(melan-a)]. The experiment in a line: 멜라닌 생성 촉진 효과 시험 (melanin production promoting effect, absorbance at 405 nm). The conditions noted are these: 3 days.
Test [2] concerns MITF. Kind of test: 멜라노사이트에서의 MITF 발현 촉진 효과 (western blot, 501mel). The conditions noted are these: for activity at 100 µM / activity at 50 ppm: IBMX 100 μM, icariside B2 50 ppm, negative control (DMSO 0.1%) = 100, read-out: MITF expression relative to negative control. Background: Immunoblotting shows a protein as a band on a membrane.
Test [3] relates to tyrosinase [티로시나제(tyrosinase)]. Kind of test: 멜라노사이트에서의 티로시나제 발현 촉진 효과 (western blot, 501mel). The note with it: for activity at 100 µM / activity at 50 ppm: IBMX 100 μM, icariside B2 50 ppm, negative control (DMSO 0.1%) = 100, read-out: tyrosinase expression relative to negative control.

Read-outs that look alike come from different tables or passages of the source.

Consider `CC(C)Cn1c(=O)n(C)c(=O)c2[nH]cnc21` [IBMX, 3-isobutyl-1-methylxanthine, reference compound], for which the activity at 100 µM is 116% in test [1] (72 h, IBMX 100 μM, 37℃, negative control (0.1% DMSO) = 100, read-out: ratio of melanin quantity to negative control); 121% in test [2] (24 h); 98% in test [2] (48 h); 224% in test [2] (72 h); 160% in test [3] (24 h); 149% in test [3] (48 h). The activity at 100 µM in test [3] (72 h) was found to be 298%.
Turning to `CC(=O)C=CC12OC1(C)CC(OC1OC(CO)C(O)C(O)C1O)CC2(C)C` (stereo not shown) [이카리시드 B2, icariside B2], the “melanin production promoting effect compared with positive control (result in words)” value in test [1] (100 ppm vs IBMX 100 μM) is recorded as “양성대조군보다 높은 멜라닌 생성 촉진 효과”. The activity at 50 ppm amounted to 103% in test [1] (72 h, 50 ppm, 37℃, negative control (0.1% DMSO) = 100, read-out: ratio of melanin quantity to negative control); 85% in test [2] (24 h); 107% in test [2] (48 h); 115% in test [2] (72 h); 126% in test [3] (24 h); 132% in test [3] (48 h). In test [3] (72 h), the activity at 50 ppm came to 180%. Also, the activity at 100 ppm in test [1] (72 h, 100 ppm, 37℃, negative control (0.1% DMSO) = 100, read-out: ratio of melanin quantity to negative control) worked out at 127%. The “melanin production (result in words)” value in test [1] is “멜라닌 생성이 늘어났으며”. Moreover, the “MITF protein expression (result in words)” value in test [2] (50 ppm, 24-72 h) is reported as “단백질 발현을 상승시킴”. In addition, the “tyrosinase protein expression (result in words)” value in test [3] (50 ppm, 24-72 h) is given as “단백질 발현을 상승시킴”.
